Assay results as given in ChEMBL document CHEMBL1817628, “Structure-based design of new DHFR-based antibacterial agents: 7-aryl-2,4-diaminoquinazolines” (Bioorg Med Chem Lett, 2011).
pKi: −log10 of the molar value. In brackets after ≈: the same amount, converted by molar mass.

How the values were obtained:
Staphylococcus aureus [1] = test: Antibacterial activity against Staphylococcus aureus Smith ATCC 13709 in presence of 20% mouse serum by CLSI microdilution method; assay type: functional
Dihydrofolate reductase [2] = target: Dihydrofolate reductase (Staphylococcus aureus, UniProt P0A017); test: Inhibition of Staphylococcus aureus DHFR assessed as oxidation of NADPH using dihydrofolate as substrate pre-incubated for 10 mins before substrate addition by spectrophotometry
[3] = Inhibition of Haemophilus influenzae DHFR assessed as oxidation of NADPH using dihydrofolate as substrate pre-incubated for 10 mins before substrate addition by spectrophotometry
Dihydrofolate reductase [4] = target: T1, Dihydrofolate reductase (Homo sapiens, UniProt P00374); test: Inhibition of human DHFR assessed as oxidation of NADPH using dihydrofolate as substrate pre-incubated for 10 mins before substrate addition by spectrophotometry
T1 sequence (P00374 whole entry): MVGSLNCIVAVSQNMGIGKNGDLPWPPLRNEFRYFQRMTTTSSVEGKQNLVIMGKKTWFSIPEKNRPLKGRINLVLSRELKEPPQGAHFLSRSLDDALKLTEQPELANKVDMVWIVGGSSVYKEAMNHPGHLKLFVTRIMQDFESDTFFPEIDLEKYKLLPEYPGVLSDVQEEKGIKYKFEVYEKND

Escherichia coli = test: Antibacterial activity against Escherichia coli ATCC 35218 by CLSI microdilution method; assay type: functional
Enterococcus faecalis = test: Antibacterial activity against Enterococcus faecalis ATCC 29212 by CLSI microdilution method; assay type: functional
Staphylococcus aureus [5] = test: Antibacterial activity against Staphylococcus aureus Smith ATCC 13709 by CLSI microdilution method; assay type: functional
Haemophilus influenzae = test: Antibacterial activity against ampicillin-resistant Haemophilus influenzae ATCC 49247 by CLSI microdilution method; assay type: functional
Staphylococcus aureus [6] = test: Antibacterial activity against TMP-resistant Staphylococcus aureus harboring DHFR F99Y mutant by CLSI microdilution method; assay type: functional
Dihydrofolate reductase [7] = target: Dihydrofolate reductase (Staphylococcus aureus, UniProt P0A017, F99Y); test: Inhibition of TMP-resistant Staphylococcus aureus DHFR F99Y mutant assessed as oxidation of NADPH using dihydrofolate as substrate pre-incubated for 10 mins before substrate addition by spectrophotometry

SMILES	MIC (Staphylococcus aureus [1]) [µg/mL]	pKi (Dihydrofolate reductase [2])	pKi [3]	pKi (Dihydrofolate reductase [4])	MIC (Escherichia coli) [µg/mL]	MIC (Enterococcus faecalis) [µg/mL]	MIC (Staphylococcus aureus [5]) [µg/mL]	MIC (Haemophilus influenzae) [µg/mL]	MIC (Staphylococcus aureus [6]) [µg/mL]	pKi (Dihydrofolate reductase [7])
CCOc1ccccc1-c1ccc2c(N)nc(N)nc2c1	8	8.51	9.57	7.07	32 (≈ 114 µM)	4 (≈ 14.3 µM)	4 (≈ 14.3 µM)	16 (≈ 57.1 µM)	–	–
CCOc1ccc(Br)cc1-c1cc2nc(N)nc(N)c2cc1C	8	9.12	10.36	7.95	32 (≈ 85.7 µM)	0.5 (≈ 1.34 µM)	1 (≈ 2.68 µM)	32 (≈ 85.7 µM)	–	–
Cc1ccccc1-c1cc2nc(N)nc(N)c2cc1C	2	9.11	10.43	7.02	8 (≈ 30.3 µM)	0.5 (≈ 1.89 µM)	0.5 (≈ 1.89 µM)	4 (≈ 15.1 µM)	–	–
CCOc1ccc2[nH]ccc2c1-c1cc2nc(N)nc(N)c2cc1C	1	9.21	10.09	6.61	8 (≈ 24 µM)	0.25 (≈ 0.75 µM)	0.25 (≈ 0.75 µM)	16 (≈ 48 µM)	–	–
CCOc1ccc(C(=O)N(CC)CC)cc1-c1cc2nc(N)nc(N)c2cc1C	0.5	–	10.89	–	64 (≈ 163 µM)	0.5 (≈ 1.27 µM)	0.5 (≈ 1.27 µM)	64 (≈ 163 µM)	8 (≈ 20.3 µM)	8.22
CC(=O)c1cccc(-c2cc3nc(N)nc(N)c3cc2C)c1	1	–	11.22	–	4 (≈ 13.7 µM)	0.5 (≈ 1.71 µM)	0.5 (≈ 1.71 µM)	1 (≈ 3.42 µM)	–	–
CCOc1ccc(C)cc1-c1cc2nc(N)nc(N)c2cc1C	4	9.07	10.47	7.65	16 (≈ 51.9 µM)	0.5 (≈ 1.62 µM)	1 (≈ 3.24 µM)	16 (≈ 51.9 µM)	–	–
Cc1cc2c(N)nc(N)nc2cc1-c1ccc(S(C)(=O)=O)cc1	1	8.92	11.64	7.36	32 (≈ 97.4 µM)	1 (≈ 3.05 µM)	2 (≈ 6.09 µM)	8 (≈ 24.4 µM)	–	–
CCOc1ccc(-c2cccc(NS(C)(=O)=O)c2)cc1-c1ccc2c(N)nc(N)nc2c1	2	–	11.31	–	64 (≈ 142 µM)	0.5 (≈ 1.11 µM)	0.5 (≈ 1.11 µM)	8 (≈ 17.8 µM)	–	–
CCOc1ccc(-c2cccnc2)cc1-c1ccc2c(N)nc(N)nc2c1	8	9.52	10.96	8.00	> 16	0.5 (≈ 1.4 µM)	0.5 (≈ 1.4 µM)	16 (≈ 44.8 µM)	–	–
CC(=O)c1cccc(-c2ccc3c(N)nc(N)nc3c2)c1	8	–	9.51	–	32 (≈ 115 µM)	4 (≈ 14.4 µM)	4 (≈ 14.4 µM)	64 (≈ 230 µM)	–	–
Cc1cc2c(N)nc(N)nc2cc1-c1ccccc1	2	8.80	11.14	6.89	8 (≈ 32 µM)	0.5 (≈ 2 µM)	1 (≈ 4 µM)	2 (≈ 7.99 µM)	–	–
CS(=O)(=O)c1ccc(-c2ccc3c(N)nc(N)nc3c2)cc1	8	8.30	9.66	6.60	> 64	16 (≈ 50.9 µM)	8 (≈ 25.4 µM)	16 (≈ 50.9 µM)	–	–
COc1cc(Cc2cnc(N)nc2N)c2c(c1OC)OC(C1CC1)C=C2 (configuration not stated)	0.13	–	11.15	–	4 (≈ 11.3 µM)	0.03 (≈ 0.0846 µM)	0.13 (≈ 0.367 µM)	1 (≈ 2.82 µM)	2 (≈ 5.64 µM)	–
Cc1cc2c(N)nc(N)nc2cc1-c1ccc(N)cc1	1	–	11.74	–	8 (≈ 30.2 µM)	0.5 (≈ 1.88 µM)	1 (≈ 3.77 µM)	2 (≈ 7.54 µM)	–	–
CCOc1ccc2ccccc2c1-c1cc2nc(N)nc(N)c2cc1C	0.5	–	10.82	–	16 (≈ 46.5 µM)	0.5 (≈ 1.45 µM)	0.125 (≈ 0.363 µM)	16 (≈ 46.5 µM)	1 (≈ 2.9 µM)	8.62
COc1ccc(-c2cc3nc(N)nc(N)c3cc2C)cc1OC	0.5	9.46	11.74	7.91	8 (≈ 25.8 µM)	0.5 (≈ 1.61 µM)	0.5 (≈ 1.61 µM)	4 (≈ 12.9 µM)	–	–
CCOc1ccc(C=O)cc1-c1cc2nc(N)nc(N)c2cc1C	1	9.62	9.66	7.92	16 (≈ 49.6 µM)	0.5 (≈ 1.55 µM)	1 (≈ 3.1 µM)	2 (≈ 6.2 µM)	–	–
Cc1cc2c(N)nc(N)nc2cc1-c1ccccc1C(C)C	1	9.89	10.43	7.68	16 (≈ 54.7 µM)	0.5 (≈ 1.71 µM)	0.25 (≈ 0.855 µM)	8 (≈ 27.4 µM)	–	–
COc1cc(Cc2cnc(N)nc2N)cc(OC)c1OC [TRIMETHOPRIM]	1	–	9.72	–	1 (≈ 3.44 µM)	0.5 (≈ 1.72 µM)	1 (≈ 3.44 µM)	0.5 (≈ 1.72 µM)	32 (≈ 110 µM)	–
COc1ccccc1-c1ccc2c(N)nc(N)nc2c1	4	–	9.68	–	32 (≈ 120 µM)	4 (≈ 15 µM)	2 (≈ 7.51 µM)	16 (≈ 60.1 µM)	–	–
COc1ccc(OC)c(-c2cc3nc(N)nc(N)c3cc2C)c1	1	–	10.85	–	16 (≈ 51.6 µM)	4 (≈ 12.9 µM)	1 (≈ 3.22 µM)	8 (≈ 25.8 µM)	–	–
Nc1ccc(-c2ccc3c(N)nc(N)nc3c2)cc1	2	–	9.80	–	32 (≈ 127 µM)	8 (≈ 31.8 µM)	4 (≈ 15.9 µM)	4 (≈ 15.9 µM)	–	–
Nc1nc(N)c2ccc(-c3ccccc3)cc2n1	64	8.04	9.28	6.13	16 (≈ 67.7 µM)	8 (≈ 33.9 µM)	8 (≈ 33.9 µM)	16 (≈ 67.7 µM)	–	–
CCOc1ccc(Cl)cc1-c1cc2nc(N)nc(N)c2cc1C	2	9.42	10.64	7.95	8 (≈ 24.3 µM)	0.5 (≈ 1.52 µM)	1 (≈ 3.04 µM)	8 (≈ 24.3 µM)	–	–
CCc1ccccc1-c1cc2nc(N)nc(N)c2cc1C	0.5	9.72	10.49	7.39	8 (≈ 28.7 µM)	0.25 (≈ 0.898 µM)	0.25 (≈ 0.898 µM)	8 (≈ 28.7 µM)	–	–
